We go through two compounds from US20120064044A1, “METHODS OF TREATING EDEMA RELATED TO ISCHEMIA-REPERFUSION” (priority 2009, published 2012).

In assay [1] the test system is NF-κB activation. The experiment in a line: NF-κB reporter assay (fluc/β-gal) in HMVECs stimulated with LPS or TNF. The format is cell-based, human. Particulars: FIG. 5B. On the procedure:
FIG. 5B is a bar graph showing the in vitro inhibition of NF-κB activation (based on firefly luciferase (fluc)/β-galactosidase (β-gal) activity) effected by 0.1, 1, 10, and 100 μg concentrations (i.e., Inhib 0.1, Inhib 1, Inhib 10, Inhib 100, respectively) of CRX-526. Fluc/β-gal was measured following stimulation of CRX-526-treated human pulmonary microvascular endothelial cells (HMVECs) with phosphate buffered saline (PBS) only (open bars), 10 ng/mL lipopolysaccharide (LPS) (spotted bars), 5 ng/mL LPS (striped bars), or 0.25 ng/mL tumor necrosis factor (TNF, darkly shaded bars). HMVECs that had not been treated with CRX-526 were used as a control. n=4/group, *p<0.05 compared to other values at same time point by ANOVA.
(§1) Recombinant, first generation E1, E3-deleted adenovirus serotype 5 vectors were prepared (see Sanlioglu et al., J. Biol. Chem., 276, 30188-30198 (2001)) and HMVECs and AMs were transfected as previously described for epithelial cells. See Wu et al., Respir. Res., 6, 26 (2005).

For another assay, the system named is OuJ mice. The experiment in a line: Murine lung ischemia-reperfusion injury, edema by wet to dry weight ratio (W/D), OuJ mice. Type of assay: in vivo, mouse. More on the design: dose or concentration left out as unconfirmed. Particulars: intravenously over 30 minutes (200 μL of saline) starting 60 minutes before left hilar clamping, FIG. 5A. As for the experimental part:
(§2) Mice were anesthetized with ketamine (0.1 mg/gm body weight) and xylazine (0.01 mg/gm) interperitoneally, followed by one-third of the initial dose hourly. Tracheotomy allowed mechanical ventilation (with a tidal volume of 0.4 mL, respiratory rate 120/min, I/E 0.4, PEEP 3 cm H2O, FiO2, 1.0) using a Columbus Instruments Ventilator CIV-101 (Columbus Instruments, Columbus, Ohio, United States of America). The right jugular vein was cannulated for infusion of albumin 2.5% in 0.9% saline, 450 μL/hour by syringe pump (Medfusion 2010i; Medex, Carlsbad, California, United States of America) to maintain hydration. Rectal temperature was monitored and maintained with a heating pad. The left pulmonary hilum was occluded for 1 hour with a microvascular clamp through a left thoracotomy. Reperfusion began with removal of the clamp. Animals were sacrificed at intervals ranging from 15 minutes to 3 hours by cardiectomy, and both lungs were excised. The apical portion of each lung was excised and immediately weighed, then desiccated in a 60° C. oven for 48 hours and re-weighed to determine wet to dry weight ratio (W/D). Remaining lung tissue was flash frozen in liquid nitrogen and stored at −80° C. Lungs excised immediately after sacrifice served as controls.

For a further assay, the system named is C57BL/6J mice. The experiment in a line: Murine lung ischemia-reperfusion injury, edema by wet to dry weight ratio (W/D), C57BL/6J mice. Type of assay: in vivo, mouse. As to conditions: BL6 mice; 10 μg over 30 minutes starting 60 min prior to left hilar clamping for 1 hour; FIGS. 7A and 7B. As for the experimental part:
as §2
A further study was performed to compare the effects of pre-treatment with a TLR4 inhibitor. […]

Assay [2] deals with NF-κB activation mediated through stimulation by Toll-like receptor 2 (TLR2) ligands. The assay is described as follows: NF-κB reporter assay (fluc/β-gal) in HMVECs stimulated with TLR2 ligands. Particulars: transfected HMVECs pretreated 1 hour; Pam(3)Cys 25 μg/mL or LTA 1 μg/mL for 8 hours; FIG. 8. Type of assay: cell-based, human.
From the text: FIG. 8 is a bar graph showing the effects of CRX-526 on NF-κB activation mediated through stimulation by Toll-like receptor 2 (TLR2) ligands. Human pulmonary microvascular endothelial cells (HMVECs) were transfected with recombinant first-generation E1, E3-deleted Ad.NF-κB-luciferase and consituitive β-galactosidase vectors so that when NF-κB is activated, the ratio of firefly luciferase (fluc)/β-galactosidase (β-gal) increases. Forty eight hours after transfection, the HMVECs were pretreated for 1 hour with various concentrations of CRX-526 (as shown on the x-axis) and exposed to TLR2 ligands Pam(3)Cys (25 μg/mL, darkly shaded bars) or lipoteichoic acid (LTA; 1 μg/mL, open bars) for 8 hours. Luciferase activity is normalized to β-galactosidase to control for infection efficiency.
as §1
For orientation: In a reporter assay the amount or activity of a reporter protein is the signal.

In assay [3] the test system is NF-κB activation. The experiment in a line: NF-κB reporter assay (fluc/β-gal) in alveolar macrophages. Type of assay: cell-based, mouse. As to conditions: 1 μg/mL LPS; native OuJ AMs and AMs from chimeric strain P-M+; FIG. 4A. On the procedure: FIG. 4A is a bar graph of NF-κB activation (as measured by firefly luciferase (fluc)/β-galactosidase (β-gal) activity) in alveolar macrophages (AMs) from chimeric mice twelve weeks following bone marrow transplant. The AMs were retrieved by bronchoalveolar lavage (BAL) and infected with Ad.NFκBLuc and Ad.CMV-LacZ, then incubated with either phosphate buffered saline (PBS; open bars) or 1 μg/mL lipopolysaccharide (LPS, darkly shaded bars). The observed firefly luciferase/β-galactosidase activity indicated complete replacement of recipient marrow from either chimeric HeJ strain (P+M−) or chimeric OuJ strain (P−M+). P=parenchymal cells, M=marrow-derived cells, +=intact TLR4 (OuJ), −=non-functional TLR4 (HeJ). AMs retrieved from non-irradiated HeJ and OuJ mice served as controls. n=4 experiments/group, p<0.0001.
AMs from HeJ and OuJ mice were harvested by BAL 120 days after BMT. The trachea was cannulated with a tailored 18 gauge catheter (Becton Dickinson, Sandy, Utah, United States of America). BAL was performed by slow tracheal delivery of 4 aliquots (35 μL×body weight in grams) of pre-warmed, sterile, endotoxin-, calcium-, and magnesium-free PBS with 0.2 mM EGTA. Lavage fluid was withdrawn by gentle suction, pooled for each mouse, and centrifuged at 250 g for 5 minutes. […]

`CCCCCCCCCCC[C@H](CC(=O)N[C@H]1[C@H](OC[C@H](NC(=O)C[C@@H](CCCCCCCCCCC)OC(=O)CCCCC)C(=O)O)O[C@H](CO)[C@@H](OP(=O)(O)O)[C@@H]1OC(=O)C[C@@H](CCCCCCCCCCC)OC(=O)CCCCC)OC(=O)CCCCC` [CRX-526]: the “TNF stimulation of NF-κB activation” value in the assay on NF-κB activation [1] (HMVECs, 0.25 ng/mL TNF) is given as “no impact”. The “NF-κB activation in HMVECs exposed to LPS” value in the assay on NF-κB activation [1] (LPS 10 or 5 ng/mL, CRX-526 0.1, 1, 10, 100 μg) was “prevented NF-κB activation”. Besides, the “edema (W/D) following 1 hour of ischemia-reperfusion” value in the assay with OuJ mice was “prevented edema”. Besides, the “edema (W/D) for up to 180 min of reperfusion” value in the assay on C57BL/6J mice was “little if any edema”. Moreover, the “NF-κB activation stimulated by TLR2 ligands” value in assay [2] is “reduced NF-κB activation”.
As to lipopolysaccharide [LPS], the “increase in luciferase activity” value with NF-κB activation [3] is given as “approximately 60 fold”.
